Consider 2 compounds from US20030147899A1, “Endogenous hormone adjuvant and uses thereof” (priority 1999, published 2003).

In assay [1] the test system is DTH reaction mounted against OXA (pinna thickness). Put plainly: Skin DTH response to OXA challenge, hormones given at sensitization (immunization) phase. To be noted: hormone ip 2 h before sensitization with 1.5% OXA: epinephrine 0.5 mg/kg, corticosterone 5 mg/kg, or both; OXA ear challenge six days after immunization. The assay is classed as in vivo, rat. On the procedure:
(§1) Young adult, male Sprague Dawley rats (150-300 g) (Harlan Sprague Dawley, Indianapolis, Ind.) were housed in plastic cages in the accredited (American Association of Accreditation of Laboratory Animal Care) animal facilities of The Rockefeller University (New York, N.Y.). The animal room was maintained on a 12 h light-dark cycle (lights on 7 am). Animals were given rat chow and water ad libitum.
This was necessary for restoring important permissive functions of corticosterone which are lost following ADX (18-20). […] Unlike constant replacement (via pellets or osmotic pumps), drinking water corticosterone also facilitates the normal termination of a stress-induced ACTH response (22, 23), and simulates the circadian corticosterone rhythm as animals drink at the beginning of the active period (16).
No anesthesia was used subsequently. An area of approximately 3×4 cm was shaved on the dorsum. The thickness of both pinnae was recorded using a constant-loading dial micrometer (Mitutoyo, Japan).
On day 5, baseline pinna thickness was measured. […] Left pinnae were treated with vehicle.
The immune reaction induced using the above procedure, is characterized by swelling at the site of challenge, and by an infiltration of monocytes/macrophages and lymphocytes into the epidermis and dermis (29-31). […]

Assay [2] deals with skin DTH, DNFB challenge (pinna thickness). Put plainly: Skin DTH response, hormones given before DNFB challenge of previously sensitized animals. The assay is classed as in vivo, rat. On the procedure:
as §1
(§2) Bilateral adrenalectomy (ADX) was performed using standard aseptic surgical techniques on animals fully anesthetized with the inhalant, methoxyflurane (Metofane; Pitman-Moore, Washington Crossing, N.J.). Sham adrenalectomized (SHAM) animals went through exactly the same procedure as ADX animals except that their adrenals were not removed. ADX animals were maintained on a low normalizing dose of corticosterone (20 μg/ml) administered through drinking choice of water or 3% saline. This was necessary for restoring important permissive functions of corticosterone which are lost following ADX (18-20). […] Unlike constant replacement (via pellets or osmotic pumps), drinking water corticosterone also facilitates the normal termination of a stress-induced ACTH response (22, 23), and simulates the circadian corticosterone rhythm as animals drink at the beginning of the active period (16).
The concentration and timing of each hormone administered is listed in the text and 3 0 figures. […] Epinephrine (Research Biochemicals International) was dissolved in sterile water.
DTH was induced by challenging the pinnae of previously sensitized rats with 2,4-dinitro-1-fluorobenzene (DNFB, Sigma, St. Louis, Mo.) or oxazalone (OXA, Sigma, St. Louis, Mo). On day 1 of sensitization, animals were anesthetized with the inhalant, methoxyflurane (Metofane; Pitman-Moore, Washington Crossing, N.J.). No anesthesia was used subsequently. An area of approximately 3×4 cm was shaved on the dorsum. The thickness of both pinnae was recorded using a constant-loading dial micrometer (Mitutoyo, Japan). On days 1 and 2 of sensitization, one hundred microliters of DNFB (1% (w/v) in 4:1, acetone:olive oil) or one hundred microliters of OXA (1.5% (w/v) in ethanol) were applied to the shaved dorsum. On day 5, baseline pinna thickness was measured. On day 6, after stress or hormone administration, the dorsal surface of the right pinnae of all animals was challenged with 50 μl of DNFB (0.5% in 4:1 acetone:olive oil) or OXA (0.75% in ethanol). Left pinnae were treated with vehicle. Pinna thickness was measured at the times shown. Measurements were made (on same relative region of pinna) gently and rapidly to avoid displacing or compressing edema fluid and changing pinna thickness.
The immune reaction induced using the above procedure, is characterized by swelling at the site of challenge, and by an infiltration of monocytes/macrophages and lymphocytes into the epidermis and dermis (29-31). A positive correlation between the intensity of the immune reaction and the increase in pinna thickness has been reported (32, 33). This model for skin DTH reactions has been widely used to monitor cell-mediated immune responses in vivo (30, 34).
For all experiments, repeated measures were made on each animal. Significant differences between timepoints within a specific leukocyte subpopulation were analyzed using the Student's t-test as a test for significant differences between means. […] Data are expressed as mean ±SEM in all figures. A computer statistics package was used for statistical analyses (SYSTAT v5.2.1, Systat Inc., Evanston, Ill.).

In assay [3] the test system is skin DTH, OXA challenge (pinna thickness). Put plainly: Skin DTH response, hormones given before OXA challenge of previously sensitized ADX animals. The assay is classed as in vivo, rat. As to conditions: for skin DTH vs vehicle: epinephrine 0.5 mg/kg, corticosterone 5 mg/kg, or both, OXA (0.75%) challenge 2 h after hormone administration. As to the method:
as §1, §2
The concentration and timing of each hormone administered is listed in the text and 3 0 figures. […]
DTH was induced by challenging the pinnae of previously sensitized rats with 2,4-dinitro-1-fluorobenzene (DNFB, Sigma, St. Louis, Mo.) or oxazalone (OXA, Sigma, St. Louis, Mo). […] The thickness of both pinnae was recorded using a constant-loading dial micrometer (Mitutoyo, Japan). […] On day 5, baseline pinna thickness was measured. […] Pinna thickness was measured at the times shown. […]
For all experiments, repeated measures were made on each animal. Significant differences between timepoints within a specific leukocyte subpopulation were analyzed using the Student's t-test as a test for significant differences between means. […] Data are expressed as mean ±SEM in all figures. […]

Assay [4] relates to lymphocytes in cervical lymph nodes. Put plainly: Cellularity of cervical lymph nodes draining the site of the skin DTH reaction. In kind it is in vivo, rat. To be noted: ADX animals, epinephrine 0.5 mg/kg, corticosterone 5 mg/kg, or both, OXA challenge 2 h after administration, 48 h after antigen exposure. On the procedure:
Animals were rapidly sacrificed and cervical lymph nodes were dissected and placed in sterile PBS on ice (n=3 per treatment group). Each lymph node was subsequently weighed and disrupted between the frosted ends of two microscope slides. Suspensions of leukocytes were prepared in PBS and stored on ice for cell counting, immunofluorescent staining, and flow cytometry. White blood cell counts and lymphocyte-neutrophil differentials were obtained on a hematology analyzer (F800, Sysmex, McGraw Park, Ill.). Specific leukocyte subtypes were measured by immunofluorescent antibody staining and subsequent analysis using three color flow cytometry (FACScan, Becton Dickinson, San Jose, Calif.). T cells were identified using the following monoclonal antibodies (Caltag, Burlingame, Calif.): CD3-FITC (1F4), CD4-PE (w3/25), CD8-TC (OX8). Briefly, cell suspensions were incubated with antibody for 20 min at room temperature, washed with PBS, and read on the FACScan with 3,000 to 5,000 events being acquired from each preparation. Appropriate isotype controls were used to set the negative criteria. Data were analyzed using Cell Quest software (Becton Dickinson, San Jose, Calif.). For all experiments, repeated measures were made on each animal. Significant differences between timepoints within a specific leukocyte subpopulation were analyzed using the Student's t-test as a test for significant differences between means. […] Data are expressed as mean ±SEM in all figures. A computer statistics package was used for statistical analyses (SYSTAT v5.2.1, Systat Inc., Evanston, Ill.).

Assay [5] concerns the target T1, corticosteroid binding globulin (Homo sapiens, UniProt P08185).
T1 sequence (P08185 23-405): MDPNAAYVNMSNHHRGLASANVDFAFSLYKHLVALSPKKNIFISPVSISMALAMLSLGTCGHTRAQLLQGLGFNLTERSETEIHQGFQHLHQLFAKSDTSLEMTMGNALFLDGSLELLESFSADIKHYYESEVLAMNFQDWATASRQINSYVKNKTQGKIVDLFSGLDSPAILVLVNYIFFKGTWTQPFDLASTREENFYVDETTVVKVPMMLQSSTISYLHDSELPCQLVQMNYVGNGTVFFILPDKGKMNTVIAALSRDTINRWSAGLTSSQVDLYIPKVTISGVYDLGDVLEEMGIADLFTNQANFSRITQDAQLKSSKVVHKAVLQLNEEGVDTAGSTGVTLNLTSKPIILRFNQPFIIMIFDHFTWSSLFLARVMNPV
To be noted: plasma protein; cited from earlier work.

Entries after “also recorded” stand apart in the source; their conditions may differ.

Consider `CNC[C@H](O)c1ccc(O)c(O)c1` [epinephrine, reference compound], for which the “DTH response (immune reaction at challenge or recall phase) vs vehicle” value in assay [1] is “enhance the immune reaction observed during the challenge or recall phase of DTH”. In addition, the “skin DTH vs vehicle” value in assay [2] (epinephrine 0.05, 0.25, 0.5 mg/kg, acute, ADX animals, DNFB challenge two hours after administration) is “significant dose-dependent enhancement of skin DTH”; in assay [2] (epinephrine 0.05, 0.25, 0.5 mg/kg, acute, ADX animals, DNFB challenge two hours after administration, listed as Epinephrine), “dose dependent increase in skin DTH”; in assay [3] it was “enhanced skin DTH; also recorded: enhanced DTH response”. In addition, the “lymphocyte numbers in cervical lymph nodes vs vehicle” value in assay [4] is recorded as “significantly larger numbers of lymphocytes in cervical lymph nodes”; in assay [4] (listed as Epinephrine) it was “higher lymphocyte numbers in cervical lymph nodes”.
Consider `C[C@]12C[C@H](O)[C@H]3[C@@H](CCC4=CC(=O)CC[C@@]43C)[C@@H]1CC[C@@H]2C(=O)CO` [corticosterone], for which, in assay [1], the “DTH response (immune reaction at challenge or recall phase) vs vehicle” value was “enhance the immune reaction observed during the challenge or recall phase of DTH”. Further, the “skin DTH vs vehicle” value is “significantly suppressed skin DTH” in assay [2] (corticosterone 400 μg/ml in drinking water, chronic (6 days), DNFB challenge); “lower DTH responses than control animals” in assay [2] (corticosterone 400 μg/ml in drinking water, chronic (6 days), DNFB challenge, listed as Corticosterone); “significant enhancement of skin DTH” in assay [2] (corticosterone 5 mg/kg ip, acute, ADX animals, DNFB challenge two hours after administration); “significantly larger DTH response than vehicle treated animals” in assay [2] (corticosterone 5 mg/kg ip, acute, ADX animals, DNFB challenge two hours after administration, listed as Corticosterone); “significant enhancement of skin DTH; also recorded: enhanced the DTH response” in assay [2] (corticosterone 100 or 400 μg/ml in drinking water for four hours (acute), adrenal-intact animals, DNFB challenge); “significantly larger DTH response than vehicle treated animals” in assay [2] (corticosterone 100 or 400 μg/ml in drinking water for four hours (acute), adrenal-intact animals, DNFB challenge, listed as Corticosterone). The “skin DTH vs vehicle” value in assay [2] (corticosterone high dose 40 mg/kg, acute, ADX animals, DNFB challenge) is listed as “significantly suppressed skin DTH”; in assay [2] (corticosterone high dose 40 mg/kg, acute, ADX animals, DNFB challenge, listed as Corticosterone), “lower DTH responses than control animals”; in assay [3], “enhanced skin DTH; also recorded: enhanced DTH response”. For the same compound, the “immuno-enhancement of skin DTH compared with epinephrine” value in assay [3] (corticosterone 5 mg/kg vs epinephrine 500 μg/kg, OXA challenge 2 h after administration) was “greater than that induced by epinephrine”. In addition, the “lymphocyte numbers in cervical lymph nodes vs vehicle” value in assay [4] is reported as “significantly larger numbers of lymphocytes in cervical lymph nodes; also recorded: higher lymphocyte numbers in cervical lymph nodes”. Moreover, the “binding to corticosteroid binding globulin” value in assay [5] is on record as “binds a large proportion of circulating corticosterone”.
